In US11345694B2, “Antibacterial compounds” (DISCUVA LTD., priority 2017, dated 2022):
pIC50: −log10 of the molar value. ≈ marks a conversion by molar mass, not a printed value.

Columns and labels:
[1] = test system: E. coli NCTC 13441 (UPEC); test: MIC broth microdilution; assay type: cell-based, Escherichia coli; settings: for MIC: Escherichia coli, NCTC13441
Summary of the method: (§1)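 Compounds are diluted two-fold across a final range of 0.39-200 μM, keeping DMSO no higher than 2% final. Bacteria in cation-adjusted Müller-Hinton broth are then incubated at 37° C under ambient atmosphere for 20-24 h. The lowest growth-inhibiting concentration gives the MIC.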

[2] = test system: Staphylococcus aureus ATCC 35556 (SA); test: MIC broth microdilution; assay type: cell-based; settings: for MIC: ATCC35556
Summary of the method: as §1

[3] = test system: Serratia marcescens SL1344 (Sm); test: MIC broth microdilution; assay type: cell-based
Summary of the method: as §1

[4] = test system: Escherichia coli K12 (EC); test: MIC broth microdilution; assay type: cell-based
Summary of the method: as §1

[5] = test system: Salmonella typhimurium XNAA5 (St); test: MIC broth microdilution; assay type: cell-based
Summary of the method: as §1

[6] = test system: Acinetobacter baumannii ATCC 17978 (AB); test: MIC broth microdilution; assay type: cell-based; settings: for MIC: ATCC17978
Summary of the method: as §1

[7] = test system: Pseudomonas aeruginosa ATCC 33359 (PA); test: MIC broth microdilution; assay type: cell-based; settings: for MIC: ATCC33359
Summary of the method: as §1

[8] = test system: human hepatocarcinoma cell line ATCC HB-8065 (HepG2); test: Human cell viability (CellTiter-Glo); assay type: cell-based; settings: Homo sapiens; HepG2 cells, 24 h incubation, CellTiter-Glo luminescence, 0.2-100 μM; read-out: IC50 values against the HepG2 cell line
Summary of the method: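 HepG2 cells were seeded at 20,000 cells/well in MEM with 10% FBS and, after 24 h, exposed for 24 h at 37° C. to two-fold dilutions (final 0.2-100 μM) in MEM with 1% FBS and 1% DMSO. Viability was read by CellTiter-Glo luminescence, with IC50 from a 4-parameter logistic fit.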

[9] = test system: K. pneumoniae H154300688 (KP9); test: MIC broth microdilution; assay type: cell-based, Klebsiella pneumoniae; settings: Klebsiella pneumoniae
Summary of the method: (§2)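 Two-fold dilution series, 0.39-200 μM final, max 2% DMSO; CA-MHB; 37° C, ambient air, 20-24 h; MIC = lowest conc. inhibiting visible growth. CLSI broth microdilution.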

[10] = test system: K. pneumoniae H154640784 (KP7); test: MIC broth microdilution; assay type: cell-based, Klebsiella pneumoniae; settings: Klebsiella pneumoniae
Summary of the method: as §2

[11] = test system: K. pneumoniae H151440671 (KP10); test: MIC broth microdilution; assay type: cell-based, Klebsiella pneumoniae; settings: Klebsiella pneumoniae
Summary of the method: as §2

[12] = test system: K. pneumoniae NCTC 13438 (KP1); test: MIC broth microdilution; assay type: cell-based, Klebsiella pneumoniae; settings: Klebsiella pneumoniae, NCTC13438
Summary of the method: as §2

[13] = test system: K. pneumoniae H154020667 (KP6); test: MIC broth microdilution; assay type: cell-based, Klebsiella pneumoniae; settings: Klebsiella pneumoniae
Summary of the method: as §2

[14] = test system: K. pneumoniae H154600588 (KP8); test: MIC broth microdilution; assay type: cell-based, Klebsiella pneumoniae; settings: Klebsiella pneumoniae
Summary of the method: as §2

[15] = test system: K. pneumoniae ATCC 700603 (KP3); test: MIC broth microdilution; assay type: cell-based, Klebsiella pneumoniae; settings: Klebsiella pneumoniae, ATCC700603
Summary of the method: as §2

[16] = test system: K. pneumoniae H154680676 (KP5); test: MIC broth microdilution; assay type: cell-based, Klebsiella pneumoniae; settings: Klebsiella pneumoniae
Summary of the method: as §2

[17] = test system: Klebsiella pneumoniae ATCC 10031 (KP2); test: MIC broth microdilution; assay type: cell-based; settings: ATCC10031
Summary of the method: as §2

Row | pIC50 [8] | MIC [1] | MIC [9] | MIC [10] | MIC [11] | MIC [12] | MIC [13] | MIC [14] | MIC [15] | MIC [16] | MIC [2] | MIC [4] | MIC [6] | MIC [7] | MIC [17] | SMILES | further results
1 |  |  |  |  |  |  |  |  |  |  |  |  |  |  |  | O=C(O)c1cn(C2CC2)c2cc(N3CCNCC3)c(F)cc2c1=O [CIP] | MIC UPEC [1]: D (a MIC of over 100 is assigned the letter D); MIC SA [2]: B (a MIC of from 1 to 10 is assigned the letter B); MIC Sm [3]: A (an MIC (μM) of less or equal to 1 is assigned the letter A); MIC EC [4]: A (an MIC (μM) of less or equal to 1 is assigned the letter A); MIC St [5]: A (an MIC (μM) of less or equal to 1 is assigned the letter A); MIC AB [6]: A (an MIC (μM) of less or equal to 1 is assigned the letter A); MIC PA [7]: B (a MIC of from 1 to 10 is assigned the letter B)
2 | < 4.00 | 1 to 10 µM (≈ 0.315 to 3.15 µg/mL) | 1 to 10 µM (≈ 0.315 to 3.15 µg/mL) | 10 to 100 µM (≈ 3.15 to 31.5 µg/mL) | 1 to 10 µM (≈ 0.315 to 3.15 µg/mL) | 10 to 100 µM (≈ 3.15 to 31.5 µg/mL) | 1 to 10 µM (≈ 0.315 to 3.15 µg/mL) | 10 to 100 µM (≈ 3.15 to 31.5 µg/mL) | 10 to 100 µM (≈ 3.15 to 31.5 µg/mL) | 1 to 10 µM (≈ 0.315 to 3.15 µg/mL) | > 100 µM | 1 to 10 µM (≈ 0.315 to 3.15 µg/mL) | > 100 µM | > 100 µM | ≤ 1 µM | COc1ccc(-c2nc(N)[nH]c2-c2ccnc(C)c2)cc1Cl [Example 12, 4-(3-Chloro-4-methoxyphenyl)-5-(2-methylpyridin-4-yl)-1H-imidazol-2-amine] | 
3 | < 4.00 | 1 to 10 µM (≈ 0.309 to 3.09 µg/mL) | 10 to 100 µM (≈ 3.09 to 30.9 µg/mL) | 10 to 100 µM (≈ 3.09 to 30.9 µg/mL) | 1 to 10 µM (≈ 0.309 to 3.09 µg/mL) | 10 to 100 µM (≈ 3.09 to 30.9 µg/mL) | 1 to 10 µM (≈ 0.309 to 3.09 µg/mL) | 10 to 100 µM (≈ 3.09 to 30.9 µg/mL) | 10 to 100 µM (≈ 3.09 to 30.9 µg/mL) | 1 to 10 µM (≈ 0.309 to 3.09 µg/mL) | > 100 µM | 1 to 10 µM (≈ 0.309 to 3.09 µg/mL) | > 100 µM | > 100 µM | ≤ 1 µM | Nc1cc(-c2[nH]c(N)nc2-c2ccc3c(c2)OCCO3)ccn1 [Example 24, 4-(2-Amino-4-(2,3-dihydrobenzo[b][1,4]dioxin-6-yl)-1H-imidazol-5-yl)pyridin-2-amine] | 
4 | < 4.00 | 1 to 10 µM (≈ 0.294 to 2.94 µg/mL) | 1 to 10 µM (≈ 0.294 to 2.94 µg/mL) | 10 to 100 µM (≈ 2.94 to 29.4 µg/mL) | 1 to 10 µM (≈ 0.294 to 2.94 µg/mL) | 10 to 100 µM (≈ 2.94 to 29.4 µg/mL) | 1 to 10 µM (≈ 0.294 to 2.94 µg/mL) | 10 to 100 µM (≈ 2.94 to 29.4 µg/mL) | 10 to 100 µM (≈ 2.94 to 29.4 µg/mL) | 1 to 10 µM (≈ 0.294 to 2.94 µg/mL) | > 100 µM | ≤ 1 µM | > 100 µM | > 100 µM | ≤ 1 µM | Cc1cc(-c2[nH]c(N)nc2-c2ccc3c(c2)OCO3)ccn1 [Example 26, 4-(Benzo[d][1,3]dioxol-5-yl)-5-(2-methylpyridin-4-yl)-1H-imidazol-2-amine] | 
5 | < 4.00 | ≤ 1 µM | 1 to 10 µM (≈ 0.299 to 2.99 µg/mL) | 10 to 100 µM (≈ 2.99 to 29.9 µg/mL) | 1 to 10 µM (≈ 0.299 to 2.99 µg/mL) | 10 to 100 µM (≈ 2.99 to 29.9 µg/mL) | 1 to 10 µM (≈ 0.299 to 2.99 µg/mL) | 10 to 100 µM (≈ 2.99 to 29.9 µg/mL) | 10 to 100 µM (≈ 2.99 to 29.9 µg/mL) | 1 to 10 µM (≈ 0.299 to 2.99 µg/mL) | > 100 µM | ≤ 1 µM | > 100 µM | > 100 µM | ≤ 1 µM | COc1ncc(-c2nc(N)[nH]c2-c2ccnc(C)c2)cc1F [Example 29, 4-(5-Fluoro-6-methoxypyridin-3-yl)-5-(2-methylpyridin-4-yl)-1H-imidazol-2-amine] | 
6 | < 4.00 | 1 to 10 µM (≈ 0.307 to 3.07 µg/mL) | 10 to 100 µM (≈ 3.07 to 30.7 µg/mL) | 10 to 100 µM (≈ 3.07 to 30.7 µg/mL) | 1 to 10 µM (≈ 0.307 to 3.07 µg/mL) | 10 to 100 µM (≈ 3.07 to 30.7 µg/mL) | 1 to 10 µM (≈ 0.307 to 3.07 µg/mL) | 10 to 100 µM (≈ 3.07 to 30.7 µg/mL) | 10 to 100 µM (≈ 3.07 to 30.7 µg/mL) | 1 to 10 µM (≈ 0.307 to 3.07 µg/mL) | > 100 µM | 1 to 10 µM (≈ 0.307 to 3.07 µg/mL) | > 100 µM | > 100 µM | ≤ 1 µM | Cc1cc(-c2[nH]c(C)nc2-c2ccc3c(c2)OCCO3)ccn1 [Example 84, 4-(4-(2,3-Dihydrobenzo[b][1,4]dioxin-6-yl)-2-methyl-1H-imidazol-5-yl)-2-methylpyridine] | 
